# Earlier results, collected in article PMC7196435 (Bioorganic & medicinal chemistry letters, 2020).
# System: CYP46A1
# Details: at 1 μM concentration
compound,measurement,value
O=C(NCc1ccccc1)N1CCN(c2cncnc2-c2ccccc2)CC1 [compound 1],inhibitory activity towards CYP46A1,95%
